From ChEMBL document CHEMBL1681651, “A broad spectrum anticancer nucleoside with selective toxicity against human colon cells in vitro” (2011)

Tests used:
Format in all cases: functional
BT-549 = experiment: Growth inhibition of human BT549 cells assessed as cell growth at 1 uM after 48 hrs by SRB assay; details: BT-549, 48 h, read-out: Activity
NCI-H23 [1] = experiment: Growth inhibition of human NCI-H23 cells assessed as cell growth at 10 uM after 48 hrs by SRB assay; details: NCI-H23, 48 h, read-out: Activity
NCI-H522 [2] = experiment: Growth inhibition of human NCI-H522 cells assessed as cell growth at 10 uM after 48 hrs by SRB assay; details: NCI-H522, 48 h, read-out: Activity
SNB-19 [3] = experiment: Growth inhibition of human SNB19 cells after 48 hrs by […] growth inhibition assay; details: SNB-19, 48 h
IGROV-1 = experiment: Growth inhibition of human IGROV1 cells after 48 hrs by […] growth inhibition assay; details: IGROV-1, 48 h
OVCAR-8 [4] = experiment: Growth inhibition of human OVCAR8 cells after 48 hrs by […] growth inhibition assay; details: OVCAR-8, 48 h
HOP-62 = experiment: Growth inhibition of human HOP62 cells assessed as cell growth at 0.1 uM after 48 hrs by SRB assay; details: HOP-62, 48 h, read-out: Activity
COLO 205 = experiment: Growth inhibition of human COLO205 cells assessed as cell growth at 0.1 uM after 48 hrs by SRB assay; details: COLO 205, 48 h, read-out: Activity
HCT-116 = experiment: Growth inhibition of human HCT116 cells assessed as cell growth at 0.1 uM after 48 hrs by SRB assay; details: HCT-116, 48 h, read-out: Activity
SNB-75 = experiment: Growth inhibition of human SNB75 cells assessed as cell growth at 0.1 uM after 48 hrs by SRB assay; details: SNB-75, 48 h, read-out: Activity
M14 = experiment: Growth inhibition of human M14 cells assessed as cell growth at 0.1 uM after 48 hrs by SRB assay; details: M14, 48 h, read-out: Activity
SN12C = experiment: Growth inhibition of human SN12C cells assessed as cell growth at 0.1 uM after 48 hrs by SRB assay; details: read-out: Activity
SNB-19 [5] = experiment: Growth inhibition of human SNB19 cells assessed as cell growth at 10 uM after 48 hrs by SRB assay; details: SNB-19, 48 h, read-out: Activity
786-0 = experiment: Growth inhibition of human 786-0 cells assessed as cell growth at 10 uM after 48 hrs by SRB assay; details: 786-0, 48 h, read-out: Activity
ACHN [6] = experiment: Growth inhibition of human ACHN cells assessed as cell growth at 10 uM after 48 hrs by SRB assay; details: read-out: Activity
MCF7 = experiment: Growth inhibition of human MCF7 cells assessed as cell growth at 10 uM after 48 hrs by SRB assay; details: MCF7, 48 h, read-out: Activity
MDA-MB-435 = experiment: Growth inhibition of human MDA-MB-435 cells assessed as cell growth at 10 uM after 48 hrs by SRB assay; details: MDA-MB-435, 48 h, read-out: Activity
HOP-92 [7] = experiment: Growth inhibition of human HOP92 cells assessed as cell growth at 100 uM after 48 hrs by SRB assay; details: HOP-92, 48 h, read-out: Activity
NCI-H23 [8] = experiment: Growth inhibition of human NCI-H23 cells assessed as cell growth at 100 uM after 48 hrs by SRB assay; details: NCI-H23, 48 h, read-out: Activity
U-251 = experiment: Growth inhibition of human U251 cells assessed as cell growth at 100 uM after 48 hrs by SRB assay; details: U-251, 48 h, read-out: Activity
LOX IMVI = experiment: Growth inhibition of human LOXIMVI cells assessed as cell growth at 100 uM after 48 hrs by SRB assay; details: read-out: Activity
A498 [9] = experiment: Growth inhibition of human A498 cells assessed as cell growth at 100 uM after 48 hrs by SRB assay; details: A498, 48 h, read-out: Activity
ACHN [10] = experiment: Growth inhibition of human ACHN cells assessed as cell growth at 100 uM after 48 hrs by SRB assay; details: read-out: Activity
CAKI-1 = experiment: Growth inhibition of human Caki1 cells assessed as cell growth at 100 uM after 48 hrs by SRB assay; details: CAKI-1, 48 h, read-out: Activity
TK-10 = experiment: Growth inhibition of human TK10 cells assessed as cell growth at 100 uM after 48 hrs by SRB assay; details: TK-10, 48 h, read-out: Activity
HOP-92 [11] = experiment: Growth inhibition of human HOP92 cells assessed as cell growth at 1 mM after 48 hrs by SRB assay; details: HOP-92, 48 h, read-out: Activity
A498 [12] = experiment: Growth inhibition of human A498 cells assessed as cell growth at 1 mM after 48 hrs by SRB assay; details: A498, 48 h, read-out: Activity
MDA-MB-231 = experiment: Growth inhibition of human MDA-MB-231 cells assessed as cell growth at 1 mM after 48 hrs by SRB assay; details: MDA-MB-231, 48 h, read-out: Activity
NCI/ADR-RES = experiment: Growth inhibition of human NCI/ADR-RES cells after 48 hrs by SRB assay
[13] = Growth inhibition of human […] cells assessed as cell growth at 1 uM after 48 hrs by SRB assay; details: read-out: Activity
NCI-H522 [14] = experiment: Growth inhibition of human NCI-H522 cells assessed as cell growth at 1 uM after 48 hrs by SRB assay; details: NCI-H522, 48 h, read-out: Activity
HCT-15 = experiment: Growth inhibition of human HCT15 cells assessed as cell growth at 1 uM after 48 hrs by SRB assay; details: HCT-15, 48 h, read-out: Activity
UACC-257 = experiment: Growth inhibition of human UACC257 cells assessed as cell growth at 1 uM after 48 hrs by SRB assay; details: UACC-257, 48 h, read-out: Activity
OVCAR-8 [15] = experiment: Growth inhibition of human OVCAR8 cells assessed as cell growth at 1 uM after 48 hrs by SRB assay; details: OVCAR-8, 48 h, read-out: Activity
SR = experiment: Growth inhibition of human SR cells assessed as cell growth at 10 uM after 48 hrs by SRB assay; details: read-out: Activity
[16] = read-out: LC50 (the source's name)
[17] = read-out: pLC50 (the source's name) (converted)

CNC(=O)NC[C@H]1O[C@@H](n2cnc3c(NC(=O)Nc4ccccc4)ncnc32)[C@H](O[Si](C)(C)C(C)(C)C)[C@@H]1O[Si](C)(C)C(C)(C)C
growth at 1 µM (BT-549): 112% | growth at 10 µM (NCI-H23 [1]): 105% | growth at 10 µM (NCI-H522 [2]): 90% | GI50 (SNB-19 [3]; read-out: GI50): 4.57 µM | CC50 (SNB-19 [3]; [16]): > 100 µM | TGI (SNB-19 [3]; read-out: TGI): > 100 µM | GI50 (SNB-19 [3]; read-out: pGI50 (converted)): 4.57 µM | CC50 (SNB-19 [3]; [17]): > 100 µM | TGI (SNB-19 [3]; read-out: pTGI): > 100 µM | GI50 (IGROV-1; read-out: GI50): 2.74 µM | CC50 (IGROV-1; [16]): > 100 µM | TGI (IGROV-1; read-out: TGI): 7.76 µM | GI50 (IGROV-1; read-out: pGI50 (converted)): 2.75 µM | CC50 (IGROV-1; [17]): > 100 µM | TGI (IGROV-1; read-out: pTGI (converted)): 7.76 µM | GI50 (OVCAR-8 [4]; read-out: GI50): 4.01 µM | CC50 (OVCAR-8 [4]; [16]): > 100 µM | TGI (OVCAR-8 [4]; read-out: TGI): 40.1 µM | GI50 (OVCAR-8 [4]; read-out: pGI50 (converted)): 3.98 µM | CC50 (OVCAR-8 [4]; [17]): > 100 µM | TGI (OVCAR-8 [4]; read-out: pTGI (converted)): 39.8 µM | growth at 0.1 µM (HOP-62): 102% | growth at 0.1 µM (COLO 205): 109% | growth at 0.1 µM (HCT-116): 107% | growth at 0.1 µM (SNB-75): 94% | growth at 0.1 µM (M14): 101% | growth at 0.1 µM (SN12C): 100% | growth at 10 µM (SNB-19 [5]): 91% | growth at 10 µM (786-0): 110% | growth at 10 µM (ACHN [6]): 105% | growth at 10 µM (MCF7): 83% | growth at 10 µM (MDA-MB-435): 97% | growth at 100 µM (HOP-92 [7]): -28% | growth at 100 µM (NCI-H23 [8]): -5% | growth at 100 µM (U-251): 2% | growth at 100 µM (LOX IMVI): -89% | growth at 100 µM (A498 [9]): -39% | growth at 100 µM (ACHN [10]): 10% | growth at 100 µM (CAKI-1): -11% | growth at 100 µM (TK-10): 14% | growth at 1000 µM (HOP-92 [11]): -50% | growth at 1000 µM (A498 [12]): -76% | growth at 1000 µM (MDA-MB-231): -76% | GI50 (NCI/ADR-RES; read-out: GI50): 3.72 µM | CC50 (NCI/ADR-RES; [16]): > 100 µM | TGI (NCI/ADR-RES; read-out: TGI): 20.7 µM | GI50 (NCI/ADR-RES; read-out: pGI50 (converted)): 3.72 µM | CC50 (NCI/ADR-RES; [17]): > 100 µM | TGI (NCI/ADR-RES; read-out: pTGI (converted)): 20.9 µM | growth at 1 µM [13]: 98% | growth at 1 µM (NCI-H522 [14]): 90% | growth at 1 µM (HCT-15): 106% | growth at 1 µM (UACC-257): 100% | growth at 1 µM (OVCAR-8 [15]): 106%

CNC(=O)OC[C@H]1O[C@@H](n2cnc3c(NC(=O)Nc4ccccc4)ncnc32)[C@H](O[Si](C)(C)C(C)(C)C)[C@@H]1O[Si](C)(C)C(C)(C)C
growth at 10 µM (SR): 77.9% | growth at 10 µM (NCI-H23 [1]): 98% | growth at 10 µM (NCI-H522 [2]): 52.6% | growth at 10 µM (SNB-19 [5]): 114% | growth at 10 µM (786-0): 94.6% | growth at 10 µM (ACHN [6]): 94.6% | growth at 10 µM (MCF7): 87.8% | growth at 10 µM (MDA-MB-435): 94.9%
